Laboratory results published in patent publication US8685730B2, “Methods and devices for differentiating pluripotent stem cells into cells of the pancreatic lineage” (Wisconsin Alumni Research Foundation, priority 2006, dated 2014).

Assays:
Assay type in all cases: cell-based, human
[1] = tested on: hESCs; experiment: Quantitative RT-PCR (QPCR) of transcript accumulation in hESCs differentiated through Stages 1-4
Protocol: Culture of undifferentiated hESCs or human iPS (hiPS) cells. Cell lines used were NIH-approved H1 (WA01) and H9 (WA09) between passage 18 and 42, though hiPS cell lines derived from iPS (IMR-90)-4-MCB-1, iPS (Foreskin)-1-MCB-1, and DF 19-9-7T-MCB-01 may be used, as well as mouse ES cells.
Chemically defined medium comprised 80% DMEM/F12 and 20% Knockout serum replacement supplemented with 1 mM L-glutamine, 1% nonessential amino acids, 0.1 mM 2-mercaptoethanol and 4 ng/ml bFGF (all from Invitrogen). hESCs were cultured in 6-well plates on a feeder layer of irradiated MEFs, and the medium was refreshed daily. When the cells were nearly confluent, the ES cell colonies were split and passaged by detaching them from the feeder layer with 2 mg/ml dispase (Invitrogen). The colonies were then rinsed off the plates and filtered through a 70 μm cell strainer to remove MEFs. The colonies remained in the strainer. The retained cells were rinsed, pipetted into small pieces, and plated on growth factor-depleted Matrigel™ (BD Biosciences) at a density of 70% to 80% confluence in MEF-conditioned media.
Stage 1. On the day after splitting, differentiation was initiated by replacing the medium with medium containing 100 ng/ml bFGF, 100 ng/ml Activin A and 50 ng/ml BMP4 (FAB) in DMEM/F12 supplemented with 2% BSA, 1 mML-glutamine, 1% nonessential amino acids and 0.1 mM 2-mercaptoethanol for 3 to 4 days. The medium was refreshed daily.
(§1) Stage 2. FAB-treated cells were detached from the plate with 2 mg/ml dispase and grown in suspension as cell aggregates in MEF-conditioned medium (CM) for 2 days. On the third day, the medium was switched to DMEM/F12 with ITS supplement (BD, 5 μg/ml insulin+5 μg/ml transferrin+5 ng/ml selenous acid) and 50 ng/ml bFGF for 12 days in suspension culture dishes. The medium was refreshed every 2 days.
Stage 3. Cell aggregates were transferred to a 15 ml centrifuge tube and allowed to settle by gravity. The medium was aspirated, and the pellet-containing tube placed on ice. Two milligrams of Matrigel™ were diluted with 3 ml of cold DMEM/F12 added to the pellet at a density of 50 to 100 cell aggregates/ml. One half milliliter of this diluted Matrigel™/cell aggregate mixture was added onto a coverslip previously loaded into wells of a 24-well plate and incubated overnight at 37° C. in 5% CO2.
Nongelled Matrigel™ was aspirated from the wells and ITSFINE medium, a serum-free medium comprised of DMEM/F12 with ITS, 10 ng/ml FGF7 (R&D), 200 nM INGAP (PSN-4765, sequence: IGLHDPSHGTLPNGS), 10 mM nicotinamide (Sigma), 10 nM exendin-4 (Sigma), 4 μg/ml insulin (Gibco) and 2 g/L BSA (Sigma) was added for 21 to 28 days. The medium was refreshed every other day. As an alternative to DMEM/F12 only, DMEM/F12 may be used for the first 14 days of culture followed by 14 days of RPMI1640 as the base medium.
Stage 4. The sphere-structured cell masses were washed and the medium was replaced with RPMI1640 supplemented with 1×B27 (Invitrogen) and 10 mM nicotinamide for 1 to 2 weeks. Alternatively, the sphere-structured cell masses may be dislodged with 2 mg/ml dispase (two hundred microliters of per well of a 24-well plate), rinsed off the plate, and placed in suspension culture dishes in DMEM/F12 supplemented with 1×B27 and 10 mM nicotinamide for 1 to 2 weeks.
Total cellular RNA was extracted with Trizol (Invitrogen). cDNA was synthesized from 1 μg total RNA using a SuperScript First-Strand Synthesis kit (Invitrogen). Quantitative real time RT-PCR (QPCR) was performed using Assays-on-demand agents (Applied Biosystems) on an ABI PRISM 7700 Sequence Detection System (Applied Biosystems) for the following transcripts: foxa2, sox17, brachyury, ngn3, pdx1, insulin, glucagon, glut2 and an endogenous control, β-actin (see Table No. 2 for assay numbers). QPCR was performed according to the equipment manufacturer's instructions. Relative quantification was carried out using the comparative cycle threshold (CT) method recommended by the supplier. […]

[2] = tested on: hESCs; experiment: Trophoblast differentiation (hCG and CDX2 expression); settings: for cdx2 expression at Stage 1: compared to undifferentiated hESCs
Protocol: FIG. 3 illustrates how treatment of hESCs with BMP4 and/or bFGF influences cell fate. Cultures of adherent, undifferentiated hESCs grown in MEF-conditioned media were treated for 1, 4, or 7 days and then assayed for human chorionic gonadotropin (hCG) protein expression (a) or hCG transcript accumulation by QPCR (b). For QPCR results, the fold change values and statistical analyses were calculated by comparing treated cells with cells grown to the same time point but without added growth factors (ctrl). B10, 10 ng/ml BMP4; B50, 50 ng/ml BMP4; B100, 100 ng/ml BMP4; B10F, 10 ng/ml BMP4+100 ng/ml bFGF; B50F, 50 ng/ml BMP4+100 ng/ml bFGF; B100F, 100 ng/ml BMP4+100 ng/ml bFGF. *, p<0.05; **, p<0.01.
FIG. 4 illustrates the expression of cdx2 transcript at Stage 1. Fold change values compared to undifferentiated hESCs are shown. […] CM, conditioned media; F, bFGF; A, Activin A; B, BMP4; inhib, SB431542 Activin signaling inhibitor; D/F, DMEM/F12; I, insulin. See Materials and Methods for growth factor concentrations.
(§2) Total cellular RNA was extracted with Trizol (Invitrogen). cDNA was synthesized from 1 μg total RNA using a SuperScript First-Strand Synthesis kit (Invitrogen). Quantitative real time RT-PCR (QPCR) was performed using Assays-on-demand agents (Applied Biosystems) on an ABI PRISM 7700 Sequence Detection System (Applied Biosystems) for the following transcripts: foxa2, sox17, brachyury, ngn3, pdx1, insulin, glucagon, glut2 and an endogenous control, β-actin (see Table No. 2 for assay numbers). QPCR was performed according to the equipment manufacturer's instructions. Relative quantification was carried out using the comparative cycle threshold (CT) method recommended by the supplier. Fold change was calculated as: 2^−ΔΔCT. Mean ΔΔCT values from QPCR analyses were compared using the unpaired, two-tailed Student's t-test. P values <0.05 were considered significant.

[3] = tested on: hESC; experiment: Q-PCR CTs of pancreas-associated transcripts in BMP4-treated, differentiated hESC
Protocol: as §2

[4] = tested on: hESCs; experiment: Embryoid body formation and pancreatic differentiation in suspension culture
Protocol: as §1

Q: For `NC(=O)c1ccc(-c2nc(-c3ccc4c(c3)OCO4)c(-c3ccccn3)[nH]2)cc1` [SB431542, reference compound], which “expression of gsc, Mixl1, Brachyury and FOXA2” value ([1]; added to cells treated with bFGF+BMP4 in CM) is on record?
A: The value was “completely inhibited expression”.

Q: Which “endoderm- (sox17, foxa2, pdx1) and pancreas-associated (pdx1, insulin) transcripts in EBs” value ([1]; hESCs grown on MEFs, 50 ng/ml) does the source give for “BMP4: bone morphogenetic protein 4, member of the TGFβ superfamily” here?
A: The value was “increased”.

Q: And the “cdx2 expression at Stage 1” value [2]?
A: The value was “increase in cdx2 expression”.

Q: What about the “trophoblast differentiation (hCG and CDX2 expression)” value ([2]; higher concentrations, alone, 7 days) of the same molecule?
A: The value was “high proportion of trophoblast differentiation”.

Q: And the “Q-PCR CT of Foxa2” value ([3]; EB14)?
A: Its value is 24.0.

Q: What about the “Q-PCR CT of Glucagon” value ([3]; EB14) of the same molecule?
A: Its value is 28.7.

Q: And the “Q-PCR CT of Glut2” value ([3]; EB14)?
A: Its value is 23.0.

Q: And the “Q-PCR CT of Insulin” value ([3]; EB14)?
A: Its value is 34.6.

Q: And the “Q-PCR CT of Pdx1” value ([3]; EB14)?
A: Its value is 26.7.

Q: And the “Q-PCR CT of T” value ([3]; EB14)?
A: Its value is 25.4.

Q: What about the “Q-PCR CT of β-actin” value ([3]; EB14) of the same molecule?
A: Its value is 15.0.

Q: What about the “Q-PCR CT of Foxa2” value ([3]; EB14 + 14) of the same molecule?
A: Its value is 23.1.

Q: And the “Q-PCR CT of Glucagon” value ([3]; EB14 + 14)?
A: Its value is 22.0.

Q: And the “Q-PCR CT of Glut2” value ([3]; EB14 + 14)?
A: The value was 22.0.

Q: What about the “Q-PCR CT of Insulin” value ([3]; EB14 + 14) of the same molecule?
A: The value was 28.4.

Q: What about the “Q-PCR CT of Pdx1” value ([3]; EB14 + 14) of the same molecule?
A: The value was 23.9.

Q: And the “Q-PCR CT of T” value ([3]; EB14 + 14)?
A: The value was 27.9.

Q: And the “Q-PCR CT of β-actin” value ([3]; EB14 + 14)?
A: The value was 14.7.

Q: And the “Q-PCR CT of Foxa2” value ([3]; EB14 + 21)?
A: Its value is 23.0.

Q: What about the “Q-PCR CT of Glucagon” value ([3]; EB14 + 21) of the same molecule?
A: Its value is 21.0.

Q: What about the “Q-PCR CT of Glut2” value ([3]; EB14 + 21) of the same molecule?
A: The value was 21.1.

Q: And the “Q-PCR CT of Insulin” value ([3]; EB14 + 21)?
A: Its value is 27.8.

Q: What about the “Q-PCR CT of Pdx1” value ([3]; EB14 + 21) of the same molecule?
A: The value was 24.3.

Q: What about the “Q-PCR CT of T” value ([3]; EB14 + 21) of the same molecule?
A: The value was 28.4.

Q: And the “Q-PCR CT of β-actin” value ([3]; EB14 + 21)?
A: The value was 14.9.

Q: And the “Q-PCR CT of Foxa2” value ([3]; EB14 + 28)?
A: The value was 22.7.

Q: And the “Q-PCR CT of Glucagon” value ([3]; EB14 + 28)?
A: The value was 20.2.

Q: And the “Q-PCR CT of Glut2” value ([3]; EB14 + 28)?
A: Its value is 20.4.

Q: What about the “Q-PCR CT of Insulin” value ([3]; EB14 + 28) of the same molecule?
A: Its value is 26.0.

Q: What about the “Q-PCR CT of Pdx1” value ([3]; EB14 + 28) of the same molecule?
A: The value was 23.0.

Q: And the “Q-PCR CT of T” value ([3]; EB14 + 28)?
A: Its value is 28.5.

Q: And the “Q-PCR CT of β-actin” value ([3]; EB14 + 28)?
A: The value was 15.4.

Q: And the “Q-PCR CT of Foxa2” value ([3]; hESC + BMP4)?
A: Its value is 25.6.

Q: What about the “Q-PCR CT of Glucagon” value ([3]; hESC + BMP4) of the same molecule?
A: Its value is over 50.

Q: What about the “Q-PCR CT of Glut2” value ([3]; hESC + BMP4) of the same molecule?
A: The value was 32.8.

Q: What about the “Q-PCR CT of Insulin” value ([3]; hESC + BMP4) of the same molecule?
A: The value was over 50.

Q: And the “Q-PCR CT of Pdx1” value ([3]; hESC + BMP4)?
A: Its value is 36.4.

Q: What about the “Q-PCR CT of T” value ([3]; hESC + BMP4) of the same molecule?
A: Its value is 25.6.

Q: What about the “Q-PCR CT of β-actin” value ([3]; hESC + BMP4) of the same molecule?
A: The value was 15.0.

Q: What does the source list for “insulin: a PI3K agonist, component of serum replacement”?
A: induction of Brachyury ([1]; combined with Activin A): significantly increased; induction of SOX17 ([1]; combined with Activin A): significantly decreased

B1: noggin: a known BMP antagonist (protein, UniProt Q13253 28-232, looked up)
Noggin: QHYLHIRPAPSDNLPLVDLIEHPDPIFDPKEKDLNETLLRSLLGGHYDPGFMATSPPEDRPGGGGGAAGGAEDLAELDQLLRQRPSGAMPSEIKGLEFSEGLAQGKKQRLSKKLRRKLQMWLWSQTFCPVLYAWNDLGSRFWPRYVKVGSCFSKRSCSVPEGMVCKPSKSVHLTVLRWRCQRRGGQRCGWIPIQYPIISECKCSC
Q: For B1, which “effect of BMP4 on endoderm- and pancreas-associated transcripts” value ([1]; 300 ng/ml, simultaneous incubation with 50 ng/ml BMP4) is on record?
A: Its value is “eliminated”.

Q: And the “expression of SOX17, FOXA2, Brachyury and PDX1” value ([1]; added during Stage 1, read at the end of Stage 2)?
A: Its value is “significantly reduced levels of expression”.

B2: Activin A: member of the TGF-β superfamily (protein, UniProt P08476 311-426, looked up)
Inhibin beta A chain: GLECDGKVNICCKKQFFVSFKDIGWNDWIIAPSGYHANYCEGECPSHIAGTSGSSLSFHSTVINHYRMRGHSPFANLKSCCVPTKLRPMSMLYYDDGQNIIKKDIQNMIVEECGCS
modifications: Inhibin beta A chain
notes: member of the TGF-β superfamily
Q: For B2, which “induction of MIXL1, GSC, T, SOX17 and FOXA2” value ([1]; CDM, compared to undifferentiated cells in CM) is on record?
A: Its value is “significant induction”.

Q: And the “cdx2 expression at Stage 1” value [2]?
A: Its value is “essentially eliminates expression of cdx2”.

Q: What about the “induction of pancreatic cell differentiation” value ([4]; 5, 50 or 100 ng/ml in serum-free medium, treatment alone) of the same molecule?
A: Its value is “cannot induce pancreatic cell differentiation”.

Q: What about the “EB formation from treated hESCs” value ([4]; Stage 1 treatment in CDM) of the same molecule?
A: Its value is “failed to develop”.
